SMILES strings stand for the structures. Square brackets hold non-standard residues; d marks the D form. Side chains are listed from the residue outwards. Peptide text beside a SMILES is read from it. * marks the point of attachment. C18 diacid = O=C(O)CCCCCCCCCCCCCCCCC(=O)*; NMeY = CN[C@@H](Cc1ccc(O)cc1)C(=O)O; Palmitoyl = CCCCCCCCCCCCCCCC(=O)*; αMeF = C[C@](N)(Cc1ccccc1)C(=O)O; Iva = CC[C@](C)(N)C(=O)O; Aib = CC(C)(N)C(=O)O

The target in one assay is T1, human GIPR (Homo sapiens, UniProt P48546).
T1 construct: expressed in transfected cells; host or cells: CHO-K1 Cre-luc reporter cells (hGIPR/CHO-K1, also called hGIPR/CRE-LUC/CHO-K1)
T1 sequence (P48546 22-466): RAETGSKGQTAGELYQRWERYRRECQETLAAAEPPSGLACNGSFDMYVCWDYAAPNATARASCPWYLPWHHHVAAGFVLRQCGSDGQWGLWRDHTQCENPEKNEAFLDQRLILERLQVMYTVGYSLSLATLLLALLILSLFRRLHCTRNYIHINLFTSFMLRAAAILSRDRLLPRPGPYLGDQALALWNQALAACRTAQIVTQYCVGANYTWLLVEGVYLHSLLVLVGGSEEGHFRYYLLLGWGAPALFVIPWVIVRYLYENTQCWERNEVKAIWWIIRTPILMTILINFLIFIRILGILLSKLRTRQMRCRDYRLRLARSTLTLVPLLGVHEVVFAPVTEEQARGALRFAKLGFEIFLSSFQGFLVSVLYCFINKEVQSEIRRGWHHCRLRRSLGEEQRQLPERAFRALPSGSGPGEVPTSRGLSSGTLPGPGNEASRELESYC
Put plainly: Reporter assay of human GIPR gene (agonist activity, intracellular cAMP as index). Format: cell-based. The conditions noted are these: Cre-luc reporter, hGIPR/CHO-K1 cells, 4 hours. From the text:
Evaluation of Agonist Activity Against Human NPY2R, Human GIPR, and Human GLP-1R Using Change in Intracellular cAMP Concentration as Index
The human GIPR gene having a sequence identical to the sequence of GenBank Accession No. U39231 was cloned into pMSRα-neo vector to prepare hGIPR/pMSRα-neo. This vector was introduced to the Cre-luc reporter cells obtained in (1) to obtain transformants. Next, a cell line induced to express luciferase, i.e., hGIPR/CHO-K1 cells, were selected from the obtained transformants by the addition of GIP.
The hGIPR/CRE-LUC/CHO-K1 cells or the hGLP-1R/Crel cells were inoculated at a cell density of 25 μL/well (5,000 cells/well) to a 384-well white plate (Corning, 3570), and cultured overnight in Ham F12 medium containing 10% fetal bovine serum, 100 U/mL penicillin and 100 μg/mL streptomycin in a CO2 incubator of 37° C. On the next day, a medium containing a test compound was added at a concentration of 5 μL/well to the cells, and the resultant cells were incubated for 4 hours in a CO2 incubator of 37° C. to give the final concentration of 1 μM. SteadyGlo (Promega) was added thereto at a concentration of 30 μL/well, and the mixture was shaken with light shielded. After 30 minutes, the luciferase activity was measured using a plate reader Envision (PerkinElmer). For the GIPR agonist activity, the luciferase activity in the presence of 10 μM GIP was defined as 100%, and the luciferase activity from the addition of DMSO instead of the test compound was defined as 0%. The GIPR agonist activity was calculated with a rise in intracellular cAMP concentration as an index.
(A reporter such as luciferase makes a cellular process visible.)

A further assay deals with male C57BL/6J mouse. The assay is described as follows: Evaluation of feeding suppressive action in mice. Format: in vivo. To be noted: 30 nmol/kg s.c. once a day for 3 days; 3-days cumulative food consumption vs solvent control. How it is done: The feeding suppressive activity of a test compound was examined by the method described below.
The test compound was dissolved at a concentration of 30 or 100 nmol/2 mL in a solvent (10% DMSO-containing physiological saline). The test compound solution was subcutaneously administered at a dose of 2 mL/kg to the back of each male C57BL/6J mouse at 8-9 weeks of age (20-26° C., allowed to take food and water ad libitum; raised in the 12-hour bright-12-hour dark cycle). The administration was performed once a day for 3 days. After the administration, the mouse was individually raised in a rearing cage, and given previously weighed food; food consumption for 3 days after the start of administration was measured. The food consumption was calculated by subtracting the amount of remaining food from the weight of the food given on the day of the start of administration. When the food consumption of a control group receiving administration of the solvent alone was regarded as a suppression rate of 0%, the feeding suppressive activity of each test compound was evaluated on the basis of 3-days cumulative food consumption after the start of administration. The food intake suppression rate (%) of the test compound was defined as (Food consumption of the control group−Food consumption of the test compound-administered group)/Food consumption of the control group×100.

By EC50 is commonly meant the concentration needed to bring the measured effect to its halfway point. For the molecule `CC[C@H](C)[C@H](NC(=O)[C@H](C)NC(=O)[C@H](CCCCNC(=O)CNC(=O)CNC(=O)CNC(=O)CNC(=O)CCCCCCCCCCCCCCCCC(=O)O)NC(=O)[C@H](CC(=O)O)NC(=O)[C@H](CO)NC(=O)[C@@H](NC(=O)[C@](C)(Cc1ccccc1)NC(=O)[C@@H](NC(=O)CNC(=O)[C@H](CCC(=O)O)NC(=O)C(C)(C)NC(=O)[C@H](Cc1ccc(O)cc1)NC)[C@@H](C)O)[C@@H](C)O)C(=O)NC(C)(C)C(=O)N[C@@H](CC(C)C)C(=O)N[C@@H](CC(=O)O)C(=O)N[C@@H](CCCCN)C(=O)N[C@@H](CCC(N)=O)C(=O)N[C@@H](CCCNC(=N)N)C(=O)N[C@@H](CCC(N)=O)C(=O)N[C@@](C)(CC)C(=O)N[C@@H](CCC(=O)O)C(=O)N[C@@H](Cc1ccccc1)C(=O)N[C@H](C(=O)N[C@@H](CCCNC(=N)N)C(=O)N[C@@H](Cc1c[nH]cn1)C(=O)N[C@@H](CC(C)C)C(=O)N[C@@H](CC(C)C)C(=O)N[C@@H](CC(N)=O)C(=O)N[C@@H](CCCCN)C(=O)NC(C)(C)C(=O)N[C@H](C(=O)N[C@@H](CCCNC(=N)N)C(=O)N[C@@H](CCC(N)=O)C(=O)N[C@@H](CCCNC(=N)N)C(=O)N[C@@H](Cc1ccc(O)cc1)C(N)=O)[C@@H](C)O)C(C)C` [Example 14] (H-[NMeY][Aib]EGT[αMeF]TSDK([Gly-Gly-Gly-Gly-C18 diacid])AI[Aib]LDKQRQ[Iva]EFVRHLLNK[Aib]TRQRY-NH2), the EC50 on human GIPR was 170 pM.

The molecule `CC[C@H](C)[C@H](NC(=O)C(C)(C)NC(=O)[C@H](CCCCNC(=O)CNC(=O)CNC(=O)CNC(=O)CNC(=O)CCCCCCCCCCCCCCCCC(=O)O)NC(=O)[C@H](CC(=O)O)NC(=O)[C@H](CO)NC(=O)[C@@H](NC(=O)[C@](C)(Cc1ccccc1)NC(=O)[C@@H](NC(=O)CNC(=O)[C@H](CCC(=O)O)NC(=O)C(C)(C)NC(=O)[C@H](Cc1ccc(O)cc1)NC)[C@@H](C)O)[C@@H](C)O)C(=O)NC(C)(C)C(=O)N[C@@H](CC(C)C)C(=O)N[C@@H](CC(=O)O)C(=O)N[C@@H](CCCCN)C(=O)N[C@@H](CCC(N)=O)C(=O)N[C@@H](C)C(=O)N[C@@H](CCC(N)=O)C(=O)N[C@@](C)(CC)C(=O)N[C@@H](CCC(=O)O)C(=O)N[C@@H](Cc1ccccc1)C(=O)N[C@H](C(=O)N[C@@H](CCCNC(=N)N)C(=O)N[C@@H](Cc1c[nH]cn1)C(=O)N[C@@H](CC(C)C)C(=O)N[C@@H](CC(C)C)C(=O)N[C@@H](CC(N)=O)C(=O)N[C@@H](CCCCN)C(=O)NC(C)(C)C(=O)N[C@H](C(=O)N[C@@H](CCCNC(=N)N)C(=O)N[C@@H](CCC(N)=O)C(=O)N[C@@H](CCCNC(=N)N)C(=O)N[C@@H](Cc1ccc(O)cc1)C(N)=O)[C@@H](C)O)C(C)C` [Example 30] (H-[NMeY][Aib]EGT[αMeF]TSDK([Gly-Gly-Gly-Gly-C18 diacid])[Aib]I[Aib]LDKQAQ[Iva]EFVRHLLNK[Aib]TRQRY-NH2) yielded an EC50 at human GIPR of 74 pM.

For the molecule `CCCCCCCCCCCCCCCC(=O)NCC(=O)NCC(=O)NCC(=O)NCC(=O)NCCCC[C@H](NC(=O)[C@H](CC(=O)O)NC(=O)[C@H](CO)NC(=O)[C@@H](NC(=O)[C@](C)(Cc1ccccc1)NC(=O)[C@@H](NC(=O)CNC(=O)[C@H](CCC(=O)O)NC(=O)C(C)(C)NC(=O)[C@@H](N)Cc1ccc(O)cc1)[C@@H](C)O)[C@@H](C)O)C(=O)N[C@@H](CO)C(=O)N[C@H](C(=O)NC(C)(C)C(=O)N[C@@H](CC(C)C)C(=O)N[C@@H](CCC(=O)O)C(=O)N[C@@H](CCCCN)C(=O)N[C@@H](CCC(N)=O)C(=O)N[C@@H](CCCNC(=N)N)C(=O)N[C@@H](CCC(N)=O)C(=O)N[C@@](C)(CC)C(=O)N[C@@H](CCC(=O)O)C(=O)N[C@@H](Cc1ccccc1)C(=O)N[C@H](C(=O)N[C@@H](CCCNC(=N)N)C(=O)N[C@@H](Cc1c[nH]cn1)C(=O)N[C@@H](CC(C)C)C(=O)N[C@@H](CC(C)C)C(=O)N[C@@H](CC(N)=O)C(=O)N[C@@H](CCCCN)C(=O)NC(C)(C)C(=O)N[C@H](C(=O)N[C@@H](CCCNC(=N)N)C(=O)N[C@@H](CCC(N)=O)C(=O)N[C@@H](CCCNC(=N)N)C(=O)N[C@@H](Cc1ccc(O)cc1)C(N)=O)[C@@H](C)O)C(C)C)[C@@H](C)CC` [Example 39] (H-Y[Aib]EGT[αMeF]TSDK([Gly-Gly-Gly-Gly-Palmitoyl])SI[Aib]LEKQRQ[Iva]EFVRHLLNK[Aib]TRQRY-NH2), the EC50 at human GIPR stood at 41 pM. Moreover, in the assay on male C57BL/6J mouse, the “Rate of feeding suppression (%)” value was −49.6%.

As to `CCCCCCCCCCCCCCCC(=O)NCC(=O)NCC(=O)NCC(=O)NCC(=O)NCCCC[C@H](NC(=O)[C@H](CC(=O)O)NC(=O)[C@H](CO)NC(=O)[C@@H](NC(=O)[C@](C)(Cc1ccccc1)NC(=O)[C@@H](NC(=O)CNC(=O)[C@H](CCC(=O)O)NC(=O)C(C)(C)NC(=O)[C@@H](N)Cc1ccc(O)cc1)[C@@H](C)O)[C@@H](C)O)C(=O)NC(C)(C)C(=O)N[C@H](C(=O)NC(C)(C)C(=O)N[C@@H](CC(C)C)C(=O)N[C@@H](CC(=O)O)C(=O)N[C@@H](CCCCN)C(=O)N[C@@H](CCC(N)=O)C(=O)N[C@@H](C)C(=O)N[C@@H](CCC(N)=O)C(=O)N[C@@](C)(CC)C(=O)N[C@@H](CCC(=O)O)C(=O)N[C@@H](Cc1ccccc1)C(=O)N[C@H](C(=O)N[C@@H](CCCNC(=N)N)C(=O)N[C@@H](Cc1c[nH]cn1)C(=O)N[C@@H](CC(C)C)C(=O)N[C@@H](CC(C)C)C(=O)N[C@@H](CC(N)=O)C(=O)N[C@@H](CCCCN)C(=O)NC(C)(C)C(=O)N[C@H](C(=O)N[C@@H](CCCNC(=N)N)C(=O)N[C@@H](CCC(N)=O)C(=O)N[C@@H](CCCNC(=N)N)C(=O)N[C@@H](Cc1ccc(O)cc1)C(N)=O)[C@@H](C)O)C(C)C)[C@@H](C)CC` [Example 27] (H-Y[Aib]EGT[αMeF]TSDK([Gly-Gly-Gly-Gly-Palmitoyl])[Aib]I[Aib]LDKQAQ[Iva]EFVRHLLNK[Aib]TRQRY-NH2), the EC50 at human GIPR came to 41 pM. In addition, the “Rate of feeding suppression (%)” value in the assay with male C57BL/6J mouse is −41.6%.

The values above are taken from US10501516B2, “Peptide compound” (TAKEDA PHARMACEUTICAL COMPANY LIMITED, priority 2016, dated 2019).
